Data from patent US10533228B2, “3.beta-hydroxysteroid dehydrogenase in steroid dependent disease” (THE CLEVELAND CLINIC FOUNDATION, priority 2013, dated 2020).
Where a SMILES comes first, the peptide text is derived from it. The star is where a group is joined. Cbz = O=C(OCc1ccccc1)*

Key:
3βHSD1 (367N) = test: Western blot of endogenous 3βHSD1 protein in LAPC4 after degradation inhibitor; format: cell-based, human; settings: LAPC4, 10 μM
Source text: For Western blot analysis, whole cell protein extract was harvested using RIPA buffer (Sigma-Aldrich) with protease inhibitor cocktail (Roche). […] The protein was transferred to a PVDF membrane and was detected by mouse anti-3βHSD1 (Sigma), rabbit anti-HA (Santa Cruz Biotechnology, Santa Cruz, Calif.), and mouse anti-β-actin (Sigma) antibodies. […]

3βHSD1 (367T) = test: Western blot of endogenous 3βHSD1 protein in LNCaP after proteasome inhibitor; format: cell-based, human; settings: 10 μM, 8 hours
Description: For Western blot analysis, whole cell protein extract was harvested using RIPA buffer (Sigma-Aldrich) with protease inhibitor cocktail (Roche). Protein concentration was determined by BCA Protein Assay Reagent (Thermo Scientific, Rockford, Ill.), and 20 μg protein was resolved by 8.5% SDS-PAGE. The protein was transferred to a PVDF membrane and was detected by mouse anti-3βHSD1 (Sigma), rabbit anti-HA (Santa Cruz Biotechnology, Santa Cruz, Calif.), and mouse anti-β-actin (Sigma) antibodies. To determine the role of the ERAD pathway in 3βHSD1 stability, cells were treated with Eeyarestatin (Sigma) for 6 hours before harvesting cell lysate.

[1] = test system: polyubiquitinated 3βHSD1 (367N); test: Anti-ubiquitin immunoprecipitation in LAPC4; format: cell-based, human; settings: LAPC4, 10 μM; 8 hours
Description: Pre-cleared lysate was incubated with mouse anti-ubiquitin antibody (Santa Cruz) at 4° C. for 3 hours and followed by adding 40 μl of Protein AG UltraLink Resin (Thermo Scientific) for another hour for pull down. After extensive washing with lysis buffer, the purified proteins were eluted with 25 μl 2×SDS sample buffer and analyzed by Western blot.

[2] = test system: polyubiquitinated 3βHSD1(367T); test: Anti-ubiquitin immunoprecipitation in LNCaP; format: cell-based, human; settings: 10 uM, 8 hours
3βHSD1 = test: Lentiviral shRNA knockdown, 3βHSD1 immunoblot in LNCaP; format: cell-based, human; settings: stable lentiviral expression
Description: Lentiviral vector construction, viral packaging and infection were performed as previously described. Chang et al., Proc. Natl. Acad. Sci. USA, 108, 13728-13733 (2011). Briefly, […] miR30-styled shRNA sequences (#1: 5′-[…] […]-3′ (SEQ ID NO: 9); #2: 5′-[…] […]-3′ (SEQ ID NO: 10)) against HSD3B1 were PCR amplified and cloned into the pGIPZ vector (Open Biosystems, Huntsville, Ala.) and confirmed by sequencing. Virus packaging was carried out in 293T cells by co-transfecting 10 μg each of pGIPZ, pMD2.G, and psPAX2 vector. To increase transduction efficiency, 30 mL supernatant containing lentiviral particles were collected, filtered with a 0.45 μm nitrocellulose membrane and concentrated by ultracentrifugation at 19,000 rpm for 2 hours and 20 minutes at room temperature without brake. […]
For Western blot analysis, whole cell protein extract was harvested using RIPA buffer (Sigma-Aldrich) with protease inhibitor cocktail (Roche). Protein concentration was determined by BCA Protein Assay Reagent (Thermo Scientific, Rockford, Ill.), and 20 μg protein was resolved by 8.5% SDS-PAGE. The protein was transferred to a PVDF membrane and was detected by mouse anti-3βHSD1 (Sigma), rabbit anti-HA (Santa Cruz Biotechnology, Santa Cruz, Calif.), and mouse anti-β-actin (Sigma) antibodies. […]

LNCaP xenografts = test: LNCaP xenograft CRPC growth in orchiectomized mice with DHEA pellet; format: in vivo, mouse; settings: orchiectomy and DHEA pellet
Description: Mouse xenograft studies and abiraterone acetate treatment were done as described in detail previously. Li et al., Clin Cancer Res 18, 3571-3579 (2012). Briefly, male NOD/SCID mice 6 to 8 weeks of age were obtained from the UT Southwestern Animal Resources Center, underwent surgical orchiectomy and a DHEA pellet (5 mg 90-day sustained-release) implantation and 2 days later underwent subcutaneous injection with 7×10^6 LAPC4 cells. Tumors reaching 300 mm^3 volume were treated with intraperitoneal abiraterone acetate or vehicle (n=8 mice per treatment) once daily for 5 days per week for 4 weeks. Tumors were fresh frozen upon mouse sacrifice. For the studies of mutant 3βHSD1 knockdown, LNCaP cells (7×10^6) stably expressing shHSD3B1 #1, #2 and shCTRL were subcutaneously injected with matrigel into eugonadal NOD/SCID mice (n=15 per group). Mice with tumors reaching 100 mm^3 volume underwent surgical castration and DHEA pellet implantation. Time from castration to tumor volume ≥600 mm^3 was assessed. For the comparison between wild type and mutant 3βHSD1, LAPC4 cells (7×10^6) stably expressing pLVX-Tight-Puro-HSD3B1 (367N) or pLVX-Tight-Puro-HSD3B1 (367T) were subcutaneously injected into surgically orchiectomized NOD/SCID mice supplemented with a DHEA (5 mg 90-day sustained-release) pellet. Tumor diameters were measured by digital calipers two or three times per week.

## CC1(C)C(N(O)C(=O)Nc2ccc(Cl)cc2)N(c2ccc(Cl)cc2)C(=O)N1CC(=O)N/N=C/C=C/c1ccc([N+](=O)[O-])o1 (stereo not drawn) [Eeyarestatin I]
3βHSD1 (367N)
  endogenous 3βHSD1 protein: increases endogenous 3βHSD1 protein

## CC(C)C[C@@H](C=O)NC(=O)[C@H](CC(C)C)NC(=O)[C@H](CC(C)C)NC(=O)OCc1ccccc1 [MG132] (Cbz-Leu-Leu-Leu-aldehyde)
3βHSD1 (367T)
  3βHSD1 (367T) protein level: no 3βHSD1 (367T) protein increase
3βHSD1 (367N); 8 hours
  3βHSD1 (367N) protein level: reverses 3βHSD1 (367N) protein loss
[1]
  polyubiquitinated 3βHSD1 (367N) protein: increase in polyubiquitinated 3βHSD1 (367N) protein
[2]
  polyubiquitinated 3βHSD1(367T) protein: no increase in polyubiquitinated 3βHSD1(367T) protein

B1: shHSD3B1 #1: lentiviral miR30-styled shRNA against HSD3B1 (SEQ ID NO: 9) (nucleic acid)
chain: TGCTGTTGACAGTGAGCGACCTCATACAGAAAGTGACAAGTAGTGAAGCCACAGATGTACTTGTCACTTTCTGTATGAGGCTGCCTACTGCCTCGGA
3βHSD1
  3βHSD1 protein expression: silences 3βHSD1 protein expression
LNCaP xenografts
  CRPC growth (days from orchiectomy to tumor volume ≥600 mm^3): blocks CRPC growth

B2: shHSD3B1 #2: lentiviral miR30-styled shRNA against HSD3B1 (SEQ ID NO: 10) (nucleic acid)
chain: TGCTGTTGACAGTGAGCGAAGAGGAAAGACCATGTGGTTTTAGTGAAGCCACAGATGTAAAACCACATGGTCTTTCCTCTGTGCCTACTGCCTCGGA
3βHSD1
  3βHSD1 protein expression: silences 3βHSD1 protein expression
LNCaP xenografts
  CRPC growth (days from orchiectomy to tumor volume ≥600 mm^3): blocks CRPC growth
